Legend:
[1] = system: AP2-G-HA-FKBP polypeptide; experiment: Conditional knockdown of PfAP2-G fused to FKBP destabilization domain; format: cell-based, Plasmodium falciparum; settings: in the presence of Shld1; AP2-G-HA-FKBP parasites (FIG. 1)
Text: A regulatable knockdown of PfAP2-G was generated by engineering a transgenic line with AP2-G fused to an FKBP destabilization domain (DD) as described elsewhere (see, e.g., Kafsack et al., Nature, 507(7491):248-52 (2014)). Briefly, a construct encoding an AP2-G polypeptide fused to an HA-tag and an FKBP DD (e.g., an AP2-G-HA-FKBP polypeptide) was stably integrated into the genome of Plasmodium falciparum lines.
In the absence of the ligand Shield-1 (Shld1), the FKBP destabilization domain was unstable and targets fusion proteins for proteolytic degradation.

[2] = system: P. falciparum expressing a regulatable AP2-G polypeptide and having a reduced level of histone modification at the 3′ pairing element of the pfap2-g locus; experiment: Gametocytogenesis (percentage sexual conversion) of engineered parasites treated with Shld1; format: cell-based, Plasmodium falciparum; settings: in the presence of a Shld1 molecule; 3′ pairing element mutant AP2-G-HA-FKBP parasites
Protocol: The number of gametocytes was determined by splitting the culture in two and treating half with Shld1 and half with the same volume of the vehicle (Day 1). The parental cell line (AP2-G-HA-FKBP) and the pairing element mutant were tested in parallel. After 48 hours (on Day 3), the number of parasites present was counted by microscopy and N-acetylglucosamine was added to all cultures to specifically kill asexual parasites. On Day 9, when gametocytes developed enough that they were readily distinguished from asexual stage parasites by morphology, the number of gametocytes were counted by microscopy. Percentage sexual conversion was calculated by dividing this by the proportion of parasite-infected red blood cells on Day 3.

In the case of `CC[C@H](C(=O)N1CCCC[C@H]1C(=O)O[C@H](CCc1ccc(OC)c(OC)c1)c1cccc(OCCN2CCOCC2)c1)c1cc(OC)c(OC)c(OC)c1` [Shld1], the “stabilization of FKBP destabilization domain / gametocyte production” value [1] was “gametocytes were produced” and the “P. falciparum that commit to gametocytogenesis and form sexual stage parasites” value [2] was “over 60%”.

Reference: patent US20230287066A1, “MATERIALS AND METHODS FOR MAKING SEXUAL STAGE […]” (The Penn State Research Foundation, priority 2020, published 2023)
